The first assay has as its target T1, verotoxin binding to Gb3 (Enterobacteria phage H19B, UniProt P69179). The note with it: competition with radiolabelled verotoxin 1; FIG. 5C.
As to `CN(C)C(CO[C@@H]1O[C@H](CO)[C@@H](O[C@@H]2O[C@H](CO)[C@H](O[C@H]3O[C@H](CO)[C@H](O)[C@H](O)[C@H]3O)[C@H](O)[C@H]2O)[C@H](O)[C@H]1O)C(O)C(=O)Nc1c2c(nc3ccccc13)CCCC2` (stereo partly shown) [Compound B], the “inhibition of verotoxin binding to Gb3” value is reported as “effective inhibition”.
Same read-out and setting: with `CN(C)C(CO[C@@H]1O[C@H](CO)[C@@H](O[C@@H]2O[C@H](CO)[C@H](O[C@H]3O[C@H](CO)[C@H](O)[C@H](O)[C@H]3O)[C@H](O)[C@H]2O)[C@H](O)[C@H]1O)C(O)C(=O)NC12CC3CC(CC(C3)C1)C2` (stereo partly shown) [Compound A] the entry was “effective inhibition”.
Same read-out and setting: with `OC[C@H]1O[C@H](O[C@@H]2[C@H](O)[C@@H](O)[C@H](O[C@H]3[C@H](O)[C@@H](O)C(O)O[C@@H]3CO)O[C@@H]2CO)[C@H](O)[C@@H](O)[C@H]1O` (stereo partly shown) [Gb3 -sugar, globotriaose, reference compound] the entry was “virtually no inhibition”.

The target of a further assay is T1, verotoxin binding to Gb3. The note with it: spectrophotometric detection; FIG. 6B.
Regarding `O=C(CC12CC3CC(CC(C3)C1)C2)NC(CO[C@@H]1O[C@H](CO)[C@@H](O[C@@H]2O[C@H](CO)[C@H](O[C@H]3O[C@H](CO)[C@H](O)[C@H](O)[C@H]3O)[C@H](O)[C@H]2O)[C@H](O)[C@H]1O)C(O)C(=O)O` (stereo partly shown) [Compound A1], the “inhibition of binding of verotoxin to Gb3” value is on record as “do not appear to be effective inhibitors”.
Still for that read-out and setting: to `CCCCCCCCCCCCC/C=C/[C@@H](O)[C@H](CO[C@@H]1O[C@H](CO)[C@H](O)[C@H](O)[C@H]1O)NC(=O)CC12CC3CC(CC(C3)C1)C2` [Compound B1] belongs “do not appear to be effective inhibitors”; to `O=C(CC12CC3CC(CC(C3)C1)C2)NC(CO[C@@H]1O[C@H](CO)[C@H](O)[C@H](O)[C@H]1O)C(O)C(=O)O` (stereo partly shown) [Compound B2], “do not appear to be effective inhibitors”; to `CCCCCCCCCCCCC/C=C/[C@@H](O)[C@H](CO[C@@H]1O[C@H](CO)[C@@H](O[C@@H]2O[C@H](CO)[C@H](O[C@H]3O[C@H](CO)[C@H](O)[C@H](O)[C@H]3O)[C@H](O)[C@H]2O)[C@H](O)[C@H]1O)NC(=O)CC12CC3CC(CC(C3)C1)C2` [Compound A3], “effective water-soluble inhibitor”.
